Assay in all cases: Liquid medium dilution method (MIC)
Assay type in all cases: cell-based

In test [1] the test system is Streptococcus pneumoniae 030SJ1c. The settings on record: 24 h incubation at 37°C, read-out: concentrations minimales inhibitrices (C.M.I.). As for the experimental part:
(§1) Méthode des dilutions en milieu liquide
(§2) On prépare une série de tubes dans lesquels on répartit une même quantité de milieu nutritif stérile. On distribue dans chaque tube des quantités croissantes du produit à étudier, puis chaque tube est ensemencé avec une souche bactérienne. Après incubation de vingt-quatre heures à l'étuve à 37°C, l'inhibition de la croissance est appréciée par transillumination, ce qui permet de déterminer les concentrations minimales inhibitrices (C.M.I.) exprimées en microgrammes/cm^3.

The subject of test [2] is Streptococcus pneumoniae 032UC1. As to conditions: 24 h incubation at 37°C, read-out: concentrations minimales inhibitrices (C.M.I.). How it is done: as §1, §2
Test [3] deals with Streptococcus pneumoniae 030GR20. The settings on record: 24 h incubation at 37°C, read-out: concentrations minimales inhibitrices (C.M.I.). How it is done:
as §1, §2

For test [4], the system named is Streptococcus faecalis groupe D 02D2UC1. The settings on record: Enterococcus faecalis, 24 h incubation at 37°C, read-out: concentrations minimales inhibitrices (C.M.I.). How it is done:
as §1, §2

Test [5] concerns Streptococcus pneumoniae 030RO1i. The settings on record: 24 h incubation at 37°C, read-out: concentrations minimales inhibitrices (C.M.I.). As for the experimental part:
as §1, §2

In test [6] the test system is Streptococcus sanguis. The settings on record: 24 h incubation at 37°C, read-out: concentrations minimales inhibitrices (C.M.I.). How it is done:
as §1, §2

Test [7] has as its system Streptococcus agalactiae groupe B 02B1HT1. As to conditions: 24 h incubation at 37°C, read-out: concentrations minimales inhibitrices (C.M.I.). How it is done: as §1, §2
Test [8] concerns Streptococcus agalactiae groupe B 02B1SJ1. As to conditions: 24 h incubation at 37°C, read-out: concentrations minimales inhibitrices (C.M.I.). How it is done: as §1, §2
For test [9], the system named is Streptococcus pneumoniae 030PW23c. The settings on record: 24 h incubation at 37°C, read-out: concentrations minimales inhibitrices (C.M.I.). As for the experimental part: as §1, §2
Test [10] relates to Staphylococcus aureus 011UC4. The settings on record: 24 h incubation at 37°C, read-out: concentrations minimales inhibitrices (C.M.I.). As for the experimental part: as §1, §2
Test [11] relates to Streptococcus pyogenes groupe A 02A1UC1. The settings on record: 24 h incubation at 37°C, read-out: concentrations minimales inhibitrices (C.M.I.). As for the experimental part:
as §1, §2

Test [12] deals with Streptococcus mitis 02mitCB1. As to conditions: 24 h incubation at 37°C, read-out: concentrations minimales inhibitrices (C.M.I.). As for the experimental part:
as §1, §2

The test system of test [13] is Streptococcus faecium groupe D 02D3HT1. The settings on record: Enterococcus faecium, 24 h incubation at 37°C, read-out: concentrations minimales inhibitrices (C.M.I.). As for the experimental part:
as §1, §2

SMILES strings stand for the structures. In brackets after ≈: the same amount, converted by molar mass.

As to `CC[C@H]1OC(=O)[C@H](C)C(=O)[C@H](C)[C@@H](O[C@@H]2O[C@H](C)C[C@H](N(C)C)[C@H]2O)[C@](C)(OC)C[C@@H](C)/C(=N\OC2CCCNC2)[C@H](C)[C@H]2N(NCCCc3ccnc4ccccc34)C(=O)O[C@]12C` (stereo partly shown) [Exemple 3], the MIC in [1] is 0.15 µg/mL (≈ 0.168 µM); in test [2], at most 0.02 µg/mL; in test [3], 0.04 µg/mL (≈ 0.0447 µM); in test [4], 0.08 µg/mL (≈ 0.0894 µM); in [5], 0.08 µg/mL (≈ 0.0894 µM); in [6] it was 0.08 µg/mL (≈ 0.0894 µM). The MIC in test [7] was determined as 0.08 µg/mL (≈ 0.0894 µM); in [8], 0.08 µg/mL (≈ 0.0894 µM); in test [9], 0.08 µg/mL (≈ 0.0894 µM); in test [10] it was 0.3 µg/mL (≈ 0.335 µM); in [11], 0.08 µg/mL (≈ 0.0894 µM); in test [12], 0.04 µg/mL (≈ 0.0447 µM). Also, the MIC in test [13] came to 0.08 µg/mL (≈ 0.0894 µM).

The values are drawn from patent EP0968222B1, “NOVEL ERYTHROMYCIN DERIVATIVES, METHOD OF PREPARATION AND APPLICATION AS MEDICINES” (Aventis Pharma S.A., priority 1997, dated 1998).
